Test results as given in ChEMBL document CHEMBL1129084, “Structure-activity relationships for macrocyclic peptidomimetic inhibitors of HIV-1 protease” (Bioorg Med Chem Lett, 1996).
Starred links: 1 amine or outer side, 2 acyl side, 3 side chain; linkers in the order of their positions; H or OH if unused. Non-standard residues stand in square brackets, D forms with d. Residues, ends and D or L forms follow the SMILES beside them. Phe(ψ(S)CH(OH)CH2N)Pro = O=C([C@@H]1CCCN1C[C@H](O)[C@H](Cc1ccccc1)N[*:1])[*:2]; Pheψ(R-CH(OH)CH2N)Pro = O=C([C@@H]1CCCN1C[C@@H](O)[C@H](Cc1ccccc1)N[*:1])[*:2]

Biological target: Human immunodeficiency virus type 1 protease (Human immunodeficiency virus 1, UniProt Q72874)

SMILES | Ki
CC[C@@H](C)[C@@H]1NC(=O)[C@@H](NC[C@@H](O)[C@@H]2Cc3ccc(cc3)OCCCCC(=O)N[C@@H](C(C)C)C(=O)N2)Cc2ccc(cc2)OCCCNC1=O | 3 nM
CC[C@H](C)[C@H](NC(=O)[C@@H]1CCCN1C[C@@H](O)[C@H]1Cc2ccc(cc2)OCC(=O)NCC(=O)N[C@@H](CC(N)=O)C(=O)N1)C(=O)N[C@H](C(N)=O)C(C)C | 200 nM
CC[C@H](C)[C@H](NC(=O)[C@@H]1CCCN1C[C@H](O)[C@H]1Cc2ccc(cc2)OCC(=O)N[C@@H](Cc2ccc(O)cc2)C(=O)N[C@@H](CC(N)=O)C(=O)N1)C(=O)N[C@H](C(N)=O)C(C)C | 11 nM
CC[C@H](C)[C@H](NC(=O)[C@@H]1CCCN1C[C@H](O)[C@H]1Cc2ccc(cc2)OCC(=O)NCC(=O)N[C@@H](CC(N)=O)C(=O)N1)C(=O)N[C@H](C(N)=O)C(C)C | 11 nM
CC[C@H](C)[C@H](NC(=O)[C@@H]1CCCN1C[C@@H](O)[C@H]1Cc2ccc(cc2)OCC(=O)N[C@@H](Cc2ccc(O)cc2)C(=O)N[C@@H](CC(N)=O)C(=O)N1)C(=O)N[C@H](C(N)=O)C(C)C | 165 nM
CC[C@H](C)[C@H](NC(=O)[C@@H]1CCCN1C[C@H](O)[C@@H]1CSSC[C@@H](NC(C)=O)C(=O)NCC(=O)N[C@@H](CC(N)=O)C(=O)N1)C(=O)N[C@H](C(N)=O)C(C)C | 250 nM
CC[C@H](C)[C@H](NC(=O)[C@@H]1CCCN1C[C@@H](O)[C@@H]1CSSC[C@@H](NC(C)=O)C(=O)NCC(=O)N[C@@H](CC(N)=O)C(=O)N1)C(=O)N[C@H](C(N)=O)C(C)C | 36000 nM
CC[C@H](C)[C@H](NC(=O)[C@@H]1CCCN1C[C@H](O)[C@H]1Cc2ccc(cc2)OCCCCC(=O)NC(CC(N)=O)C(=O)N1)C(=O)N[C@H](C(N)=O)C(C)C (some centres not stated) | 8 nM
CC[C@H](C)[C@H](NC(=O)[C@@H]1CCCN1C[C@@H](O)[C@H]1Cc2ccc(cc2)OCCCCC(=O)NC(CC(N)=O)C(=O)N1)C(=O)N[C@H](C(N)=O)C(C)C (some centres not stated) | 74 nM
CC[C@H](C)[C@H](NC(=O)[C@@H]1CCCN1C[C@@H](O)[C@H]1Cc2ccc(cc2)OCCCC(=O)NC(CC(N)=O)C(=O)N1)C(N)=O (some centres not stated) | 2800 nM
CC[C@H](C)[C@H](NC(=O)[C@@H]1CCCN1C[C@H](O)[C@H]1Cc2ccc(cc2)OCCCC(=O)NC(CC(N)=O)C(=O)N1)C(N)=O (some centres not stated) | 250 nM
CC(C)[C@@H]1NC(=O)CCCCCOc2ccc(cc2)C[C@H]([C@H](O)CN2CCCC[C@H]2C(=O)NC(C)(C)C)NC1=O | 50 nM
CC(C)N(C(=O)[C@@H]1CCCN1C[C@@H](O)[C@H]1Cc2ccc(cc2)OCCCC(=O)NC(CC(N)=O)C(=O)N1)C(C)C (some centres not stated) | 31000 nM
CC(C)(C)NC(=O)[C@@H]1CCCN1C[C@H](O)[C@H]1Cc2ccc(cc2)OCCCC(=O)NC(CC(N)=O)C(=O)N1 (some centres not stated) | 145 nM
CC(C)(C)NC(=O)[C@@H]1CCCN1C[C@@H](O)[C@H]1Cc2ccc(cc2)OCCCC(=O)NC(CC(N)=O)C(=O)N1 (some centres not stated) | 57 nM
CC(C)CN(CC(=O)NC(C)(C)C)C[C@@H](O)[C@H]1Cc2ccc(cc2)OCCCC(=O)N[C@@H](CC(N)=O)C(=O)N1 | 250 nM
CC(C)(C)NC(=O)CN(Cc1ccccc1)C[C@@H](O)[C@H]1Cc2ccc(cc2)OCCCC(=O)N[C@@H](CC(N)=O)C(=O)N1 | 440 nM
CC(C)(C)NC(=O)CN(Cc1ccccc1)C[C@H](O)[C@H]1Cc2ccc(cc2)OCCCC(=O)N[C@@H](CC(N)=O)C(=O)N1 | 13600 nM
NC(=O)CC1NC(=O)CCCOc2ccc(cc2)C[C@H]([C@H](O)CN2CCC[C@H]2C(N)=O)NC1=O (some centres not stated) | 16000 nM
NC(=O)CC1NC(=O)CCCOc2ccc(cc2)C[C@H]([C@@H](O)CN2CCC[C@H]2C(N)=O)NC1=O (some centres not stated) | 36000 nM
CC(C)N(C(=O)[C@@H]1CCCN1C[C@H](O)[C@H]1Cc2ccc(cc2)OCCCC(=O)NC(CC(N)=O)C(=O)N1)C(C)C (some centres not stated) | 86000 nM
CC(C)CN(CC(=O)NC(C)(C)C)C[C@H](O)[C@H]1Cc2ccc(cc2)OCCCC(=O)N[C@@H](CC(N)=O)C(=O)N1 | 380 nM
CC(C)[C@@H]1NC(=O)CCCCOc2ccc(cc2)C[C@H]([C@H](O)CN2CCCC[C@H]2C(=O)NC(C)(C)C)NC1=O | 17 nM
CC[C@H](C)[C@H](NC(=O)[C@@H]1CCCN1C[C@H](O)[C@H](Cc1ccccc1)NC(=O)[C@H](CC(N)=O)NC(=O)[C@H](CC(C)C)NC(C)=O)C(=O)N[C@H](C(N)=O)C(C)C (Ac-LN[Phe(ψ(S)CH(OH)CH2N)Pro]IV-NH2) | 3 nM
CC[C@H](C)[C@H](NC(=O)[C@@H]1CCCN1C[C@@H](O)[C@H](Cc1ccccc1)NC(=O)[C@H](CC(N)=O)NC(=O)[C@H](CC(C)C)NC(C)=O)C(=O)N[C@H](C(N)=O)C(C)C (Ac-LN[Pheψ(R-CH(OH)CH2N)Pro]IV-NH2) | 18 nM
CC[C@H](C)[C@H](NC(=O)[C@@H]1CCCN1CC(O)[C@H]1Cc2ccc(cc2)OCC(=O)N[C@H](CCC(N)=O)C(=O)N[C@@H](CC(N)=O)C(=O)N1)C(=O)N[C@H](C(N)=O)C(C)C (mixture of isomers) | 4 nM
CC(C)(C)NC(=O)[C@H](Cc1ccccc1)NCC(O)[C@@H]1Cc2ccc(cc2)OCCCC(=O)NC(CC(N)=O)C(=O)N1 (mixture of isomers) | 10300 nM
